We go through 12 compounds from patent US9815796B2 (Merck Sharp & Dohme Corp., priority 2013, dated 2017).

One may read the Ki as a dissociation constant, usually derived from enzyme kinetics or from competition with a known ligand.

Molecules are shown by their SMILES. Where only a bound is given, the exact number is not on record here.

The target in this test is human PDE2A1 (Homo sapiens (Human), UniProt O00408). Put plainly: IMAP FP PDE selectivity panel, human PDE2A1. Type of test: biochemical. To be noted: Human PDE2, Lab B; read-out: Human PDE2 Ki (nM) - Lab B. An outline of the steps: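 IMAP FP format: substrate 50 nM FAM-cAMP plus 1000 nM cGMP, enzyme (insect-cell GST-tagged human PDE2A1) at ~20% conversion, 60 min reaction at room temperature. Apparent inhibition constants calculated from parallel/perpendicular fluorescence with KM 10,000 nM.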
human PDE2A1, sequence (O00408 other isoform, or with tags, fused parts or gaps): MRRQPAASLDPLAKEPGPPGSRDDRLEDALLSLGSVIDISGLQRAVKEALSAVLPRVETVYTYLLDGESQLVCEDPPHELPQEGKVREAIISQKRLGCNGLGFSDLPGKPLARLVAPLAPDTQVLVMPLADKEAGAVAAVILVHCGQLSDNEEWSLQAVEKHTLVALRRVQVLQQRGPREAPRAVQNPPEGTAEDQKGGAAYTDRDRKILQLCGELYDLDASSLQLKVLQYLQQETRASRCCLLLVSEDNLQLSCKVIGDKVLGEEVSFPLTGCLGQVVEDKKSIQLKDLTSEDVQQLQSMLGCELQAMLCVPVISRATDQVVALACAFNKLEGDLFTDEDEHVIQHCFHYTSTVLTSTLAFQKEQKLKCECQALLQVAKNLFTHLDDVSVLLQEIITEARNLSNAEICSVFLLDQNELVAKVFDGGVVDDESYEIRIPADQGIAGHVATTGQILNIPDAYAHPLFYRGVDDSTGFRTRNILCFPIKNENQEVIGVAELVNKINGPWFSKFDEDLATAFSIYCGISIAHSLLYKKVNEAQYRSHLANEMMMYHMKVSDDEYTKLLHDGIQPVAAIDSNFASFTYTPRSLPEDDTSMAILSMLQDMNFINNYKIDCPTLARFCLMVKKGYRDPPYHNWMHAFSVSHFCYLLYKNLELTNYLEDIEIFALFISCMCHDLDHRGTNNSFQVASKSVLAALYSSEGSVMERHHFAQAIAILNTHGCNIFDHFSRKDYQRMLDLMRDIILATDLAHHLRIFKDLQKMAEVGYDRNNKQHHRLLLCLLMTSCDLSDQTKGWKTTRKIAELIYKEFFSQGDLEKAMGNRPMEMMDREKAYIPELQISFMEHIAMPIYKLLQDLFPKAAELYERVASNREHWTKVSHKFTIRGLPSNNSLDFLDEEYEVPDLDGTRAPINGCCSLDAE

Regarding `CC(C)[C@@H](NC(=O)c1cc(=O)[nH]c(-c2ccccc2)n1)c1ccc(OC(F)F)cc1` [Example 543, N-{(1R)-1-[4-(difluoromethoxy)phenyl]-2-methylpropyl}-6-oxo-2-phenyl-1,6-dihydropyrimidine-4-carboxamide], the Ki was 5.2 nM.
With `CC[C@@H](NC(=O)c1cc(=O)[nH]c(C)n1)c1ccc(C(F)F)cc1` [Example 652, N-{(1R)-1-[4-(difluoromethyl)phenyl]propyl}-2-methyl-6-oxo-1,6-dihydropyrimidine-4-carboxamide], the Ki was 138 nM.
With `Cc1nc(C(=O)NC2(c3ccc(OC(F)F)cc3)CC2)cc(=O)[nH]1` [Example 628, N-{1-[4-(difluoromethoxy)phenyl]cyclopropyl}-2-methyl-6-oxo-1,6-dihydropyrimidine-4-carboxamide], the Ki worked out at 87 nM.
For `CC1(c2ccc(C(NC(=O)c3cc(=O)[nH]c(-c4ccccc4)n3)C(C)(C)C)cc2F)CC1` (single isomer, unassigned) [Example 715, (R)- or (S)-N-(1-(3-fluoro-4-(1-methylcyclopropyl)phenyl)-2,2-dimethylpropyl)-6-oxo-2-phenyl-1,6-dihydropyrimidine-4-carboxamide], the Ki amounted to 3.8 nM.
In the case of `CC(NC(=O)c1cc(=O)[nH]c(-c2ncccn2)n1)c1ccc(C2(C(F)(F)F)CC2)cc1` (single isomer, unassigned) [Example 692, (S)- or (R)-6-oxo-2-(pyrimidin-2-yl)-N-(1-(4-(1-(trifluoromethyl)cyclopropyl)phenyl)-ethyl)-1,6-dihydropyrimidine-4-carboxamide] it was over 2960 nM; in that of `Cc1nc(C(=O)N[C@@H](c2ccc(C(F)F)cc2)C(C)C)cc(=O)[nH]1` [Example 648, N-{(1R)-1-[4-(difluoromethyl)phenyl]-2-methylpropyl}-2-methyl-6-oxo-1,6-dihydropyrimidine-4-carboxamide], 34 nM; in that of `CC(NC(=O)c1cc(=O)[nH]c(C2CC2)n1)c1ccc(C2(C(F)(F)F)CC2)cc1` (single isomer, unassigned) [Example 688, (S)- or (R)-2-cyclopropyl-6-oxo-N-(1-(4-(1-(trifluoromethyl)cyclopropyl)phenyl)-ethyl)-1,6-dihydropyrimidine-4-carboxamide], over 2960 nM.
In the case of `CC(C)(C)c1ccc(C2(NC(=O)c3cc(=O)[nH]c(-c4ncccn4)n3)CC2)cc1` [Example 575, N-[1-(4-tert-butylphenyl)cyclopropyl]-6-oxo-1,6-dihydro-2,2′-bipyrimidine-4-carboxamide] it was 65 nM.
Turning to `Cc1nc(C(=O)N[C@H](C)c2ccc3c(c2)OC(F)(F)O3)cc(=O)[nH]1` [Example 606, N-[(1R)-1-(2,2-difluoro-1,3-benzodioxol-5-yl)ethyl]-2-methyl-6-oxo-1,6-dihydropyrimidine-4-carboxamide], the Ki was 237 nM.
As to `O=C(N[C@@H](c1ccc(C2CC2)cc1)C1CC1)c1cc(=O)[nH]c(-c2ccccc2)n1` [Example 544, N-[(R)-cyclopropyl(4-cyclopropylphenyl)methyl]-6-oxo-2-phenyl-1,6-dihydropyrimidine-4-carboxamide], the Ki amounted to 2.4 nM.
Turning to `Cc1nc(C(=O)N[C@H](C)c2ccc(C(F)F)cc2)cc(=O)[nH]1` [Example 656, N-{(1R)-1-[4-(difluoromethyl)phenyl]ethyl}-2-methyl-6-oxo-1,6-dihydropyrimidine-4-carboxamide], the Ki is 111 nM.
On to `Cc1nc(C(=O)N[C@]2(c3ccc(C(F)(F)F)cc3)C[C@@H]2C)cc(=O)[nH]1` (single isomer, unassigned) [Example 671, 2-methyl-N-{2-methyl-1-[4-(trifluoromethyl)phenyl)cyclopropyl}-6-oxo-1,6-dihydropyrimidine-4-carboxamide], for which the Ki was determined as 14 nM.
